Test results published in patent US11446287B2, “Compounds and methods for EP300 or CBP modulation and indications therefor” (Opna Immuno-Oncology SA, priority 2019, dated 2022).

molecular target: T1, Recombinant human EP300 containing the bromodomain (EP300-BD (1040-1161)) (Homo sapiens, UniProt Q09472); assay: EP300 Alphascreen binding assay
T1 construct: Recombinant human EP300 bromodomain (EP300-BD (1040-1161)); made in house; host or cells: E. coli BL21-CodonPlus (DE3), modified pET vector
T1 sequence (Q09472 1040-1161): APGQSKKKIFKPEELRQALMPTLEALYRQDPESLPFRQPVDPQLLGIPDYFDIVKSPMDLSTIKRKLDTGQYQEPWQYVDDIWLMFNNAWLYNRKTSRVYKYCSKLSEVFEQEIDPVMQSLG
Method in brief: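 Displacement of a biotinylated acetyl-K56 histone H3 peptide from the N-His bromodomain construct (1040-1161) measured by AlphaScreen proximity, beads at 7.5 μg/ml final, read 60 min after addition. Protein, peptide and compound first incubated 1 h at room temperature, pH 7.5 HEPES buffer; IC50 by four-parameter logistic fit.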

| Structure (SMILES) | IC50 [µM] |
| --- | --- |
| Cc1noc(C)c1-c1cnc2c(c1)c(-c1ccc(C(=O)O)cc1)cn2C(C)c1ncccn1 (stereo not drawn) [P-0013, 4-(5-(3,5-dimethylisoxazol-4-yl)-1-(1-(pyrimidin-2-yl)ethyl)-1H-pyrrolo[2,3-b]pyridin-3-yl)benzoic acid] | 0.0001 to 1 |
| Cc1noc(C)c1-c1cnc2c(c1)c(-c1ccc(C(=O)O)cc1)cn2C(C)c1ccc(F)cn1 (stereo not drawn) [P-0014, 4-(5-(3,5-dimethylisoxazol-4-yl)-1-(1-(5-fluoropyridin-2-yl)ethyl)-1H-pyrrolo[2,3-b]pyridin-3-yl)benzoic acid] | 0.0001 to 1 |
| Cc1noc(C)c1-c1cnc2c(c1)c(-c1cccc(C(=O)O)c1)cn2C(c1ccccn1)C1CCCC1 (stereo not drawn) [P-0015, 3-(1-(cyclopentyl(pyridin-2-yl)methyl)-5-(3,5-dimethylisoxazol-4-yl)-1H-pyrrolo[2,3-b]pyridin-3-yl)benzoic acid] | 0.0001 to 1 |
| Cc1noc(C)c1-c1cnc2c(c1)c(-c1ccc(F)c(C(=O)O)c1)cn2C(c1ccccn1)C1CCCC1 (stereo not drawn) [P-0016, 5-(1-(cyclopentyl(pyridin-2-yl)methyl)-5-(3,5-dimethylisoxazol-4-yl)-1H-pyrrolo[2,3-b]pyridin-3-yl)-2-fluorobenzoic acid] | 0.0001 to 1 |
| Cc1noc(C)c1-c1cnc2c(c1)c(-c1ccnc(C(=O)O)c1)cn2C(c1ccccn1)C1CCCC1 (stereo not drawn) [P-0017, 4-(1-(cyclopentyl(pyridin-2-yl)methyl)-5-(3,5-dimethylisoxazol-4-yl)-1H-pyrrolo[2,3-b]pyridin-3-yl)picolinic acid] | 0.0001 to 1 |
| Cc1noc(C)c1-c1cnc2c(c1)c(-c1cccc(CC(=O)O)c1)cn2C(c1ccccn1)C1CCCC1 (stereo not drawn) [P-0018, 2-(3-(1-(cyclopentyl(pyridin-2-yl)methyl)-5-(3,5-dimethylisoxazol-4-yl)-1H-pyrrolo[2,3-b]pyridin-3-yl)phenyl)acetic acid] | 0.0001 to 1 |
| Cc1noc(C)c1-c1cnc2c(c1)c(-c1ccncc1)cn2C(c1ccccn1)C1CCCC1 (stereo not drawn) [P-0019, 4-(1-(cyclopentyl(pyridin-2-yl)methyl)-3-(pyridin-4-yl)-1H-pyrrolo[2,3-b]pyridin-5-yl)-3,5-dimethylisoxazole] | 1 to 8 |
| Cc1noc(C)c1-c1cnc2c(c1)c(-c1ccc(C(=O)O)cc1OC1CC1)cn2[C@@H](C)c1ccccn1 [P-0170, (S)-3-cyclopropoxy-4-(5-(3,5-dimethylisoxazol-4-yl)-1-(1-(pyridin-2-yl)ethyl)-1H-pyrrolo[2,3-b]pyridin-3-yl)benzoic acid] | 0.0001 to 1 |
| Cc1noc(C)c1-c1cnc2c(-c3ccc(C(=O)O)cc3C#CC3CC3)cn([C@@H](C)c3ccccn3)c2c1 [P-0171, (S)-3-(cyclopropylethynyl)-4-(6-(3,5-dimethylisoxazol-4-yl)-1-(1-(pyridin-2-yl)ethyl)-1H-pyrrolo[3,2-b]pyridin-3-yl)benzoic acid] | 0.0001 to 1 |
| COc1ccc(C(=O)O)cc1-c1cn(C(C)(c2ccccn2)c2ccccn2)c2cc(-c3c(C)noc3C)cnc12 [P-0172, 3-(1-(1,1-di(pyridin-2-yl)ethyl)-6-(3,5-dimethylisoxazol-4-yl)-1H-pyrrolo[3,2-b]pyridin-3-yl)-4-methoxybenzoic acid] | 1 to 8 |
| CCOc1cc(C(=O)O)cc(OCC)c1-n1cc(-c2cccnc2)c2ncc(-c3c(C)noc3C)cc21 [P-0173, 4-(6-(3,5-dimethylisoxazol-4-yl)-3-(pyridin-3-yl)-1H-pyrrolo[3,2-b]pyridin-1-yl)-3,5-diethoxybenzoic acid] | 0.0001 to 1 |
| CCOc1cc(C(=O)O)cc(OC(C)C)c1-c1cn([C@@H](C)c2ccccn2)c2ncc(-c3c(C)noc3C)cc12 [P-0174, (S)-4-(5-(3,5-dimethylisoxazol-4-yl)-1-(1-(pyridin-2-yl)ethyl)-1H-pyrrolo[2,3-b]pyridin-3-yl)-3-ethoxy-5-isopropoxybenzoic acid] | 0.0001 to 1 |
| Cc1noc(C)c1-c1cnc2c(c1)c(-c1ccc(C(=O)O)cc1OC(F)(F)F)cn2-c1cccnc1 [P-0175, 4-(5-(3,5-dimethylisoxazol-4-yl)-1-(pyridin-3-yl)-1H-pyrrolo[2,3-b]pyridin-3-yl)-3-(trifluoromethoxy)benzoic acid] | 0.0001 to 1 |
| COc1ccncc1-n1cc(-c2ccc(C(=O)O)cc2OC(F)(F)F)c2cc(-c3c(C)noc3C)cnc21 [P-0176, 4-(5-(3,5-dimethylisoxazol-4-yl)-1-(4-methoxypyridin-3-yl)-1H-pyrrolo[2,3-b]pyridin-3-yl)-3-(trifluoromethoxy)benzoic acid] | 0.0001 to 1 |
| Cc1noc(C)c1-c1cnc2c(c1)c(-c1ccc(C(=O)O)cc1OC(F)(F)F)cn2-c1cnccc1Cl [P-0177, 4-(1-(4-chloropyridin-3-yl)-5-(3,5-dimethylisoxazol-4-yl)-1H-pyrrolo[2,3-b]pyridin-3-yl)-3-(trifluoromethoxy)benzoic acid] | 0.0001 to 1 |
| Cc1noc(C)c1-c1cnc2c(c1)c(-c1ccc(C(=O)O)cc1C#CC1CC1)cn2[C@@H](C)c1ccccn1 [P-0178, (S)-3-(cyclopropylethynyl)-4-(5-(3,5-dimethylisoxazol-4-yl)-1-(1-(pyridin-2-yl)ethyl)-1H-pyrrolo[2,3-b]pyridin-3-yl)benzoic acid] | 1 to 8 |
| Cc1noc(C)c1-c1cnc2c(c1)c(-c1ccc(C(=O)O)cc1OC1CCC1)cn2[C@@H](C)c1ccccn1 [P-0179, (S)-3-cyclobutoxy-4-(5-(3,5-dimethylisoxazol-4-yl)-1-(1-(pyridin-2-yl)ethyl)-1H-pyrrolo[2,3-b]pyridin-3-yl)benzoic acid] | 0.0001 to 1 |
| Cc1noc(C)c1-c1cnc2c(c1)c(-c1ccc(C(=O)O)cc1OC(F)(F)F)cn2-c1ncccc1C(F)(F)F [P-0180, 4-(5-(3,5-dimethylisoxazol-4-yl)-1-(3-(trifluoromethyl)pyridin-2-yl)-1H-pyrrolo[2,3-b]pyridin-3-yl)-3-(trifluoromethoxy)benzoic acid] | 0.0001 to 1 |
| Cc1noc(C)c1-c1cnc2c(c1)c(-c1ccc(C(=O)O)cc1C1CC1)cn2[C@@H](C)c1ccccn1 [P-0181, (S)-3-cyclopropyl-4-(5-(3,5-dimethylisoxazol-4-yl)-1-(1-(pyridin-2-yl)ethyl)-1H-pyrrolo[2,3-b]pyridin-3-yl)benzoic acid] | 0.0001 to 1 |
| Cc1noc(C)c1-c1cnc2c(c1)c(-c1ccc(C(=O)O)cc1OC(F)(F)F)cn2-c1ncccc1F [P-0182, 4-(5-(3,5-dimethylisoxazol-4-yl)-1-(3-fluoropyridin-2-yl)-1H-pyrrolo[2,3-b]pyridin-3-yl)-3-(trifluoromethoxy)benzoic acid] | 0.0001 to 1 |
| Cc1noc(C)c1-c1cnc2c(c1)c(-c1ccc(C(=O)O)cc1OC(F)(F)F)cn2-c1ncccc1Cl [P-0183, 4-(1-(3-chloropyridin-2-yl)-5-(3,5-dimethylisoxazol-4-yl)-1H-pyrrolo[2,3-b]pyridin-3-yl)-3-(trifluoromethoxy)benzoic acid] | 0.0001 to 1 |
| CCOc1cc(C(=O)O)cc(OCC)c1-n1cc(-c2ccc(F)cc2)c2ncc(-c3c(C)noc3C)cc21 [P-0184, 4-(6-(3,5-dimethylisoxazol-4-yl)-3-(4-fluorophenyl)-1H-pyrrolo[3,2-b]pyridin-1-yl)-3,5-diethoxybenzoic acid] | 0.0001 to 1 |
| CCOc1cc(C(=O)O)cc(OCC)c1-n1cc(-c2cccc(Cl)c2)c2ncc(-c3c(C)noc3C)cc21 [P-0185, 4-(3-(3-chlorophenyl)-6-(3,5-dimethylisoxazol-4-yl)-1H-pyrrolo[3,2-b]pyridin-1-yl)-3,5-diethoxybenzoic acid] | 0.0001 to 1 |
| CCOc1cc(C(=O)O)cc(OCC)c1-n1cc(-c2ccc(F)cc2F)c2ncc(-c3c(C)noc3C)cc21 [P-0186, 4-(3-(2,4-difluorophenyl)-6-(3,5-dimethylisoxazol-4-yl)-1H-pyrrolo[3,2-b]pyridin-1-yl)-3,5-diethoxybenzoic acid] | 0.0001 to 1 |
| CCOc1cc(C(=O)O)cc(OCC)c1-n1cc(Cc2ccccn2)c2ncc(-c3c(C)noc3C)cc21 [P-0187, 4-(6-(3,5-dimethylisoxazol-4-yl)-3-(pyridin-2-ylmethyl)-1H-pyrrolo[3,2-b]pyridin-1-yl)-3,5-diethoxybenzoic acid] | 0.0001 to 1 |
| Cc1noc(C)c1-c1cnc2c(c1)c(-c1ccc(C(=O)O)cc1OC(F)(F)F)cn2-c1ccccc1 [P-0188, 4-(5-(3,5-dimethylisoxazol-4-yl)-1-phenyl-1H-pyrrolo[2,3-b]pyridin-3-yl)-3-(trifluoromethoxy)benzoic acid] | 0.0001 to 1 |
| Cc1ccncc1-n1cc(-c2ccc(C(=O)O)cc2OC(F)(F)F)c2cc(-c3c(C)noc3C)cnc21 [P-0189, 4-(5-(3,5-dimethylisoxazol-4-yl)-1-(4-methylpyridin-3-yl)-1H-pyrrolo[2,3-b]pyridin-3-yl)-3-(trifluoromethoxy)benzoic acid] | 0.0001 to 1 |
| CCOc1cc(C(=O)O)cc(OCC)c1-n1cc(CC2CCC2)c2ncc(-c3c(C)nnn3C)cc21 [P-0190, 4-(3-(cyclobutylmethyl)-6-(1,4-dimethyl-1H-1,2,3-triazol-5-yl)-1H-pyrrolo[3,2-b]pyridin-1-yl)-3,5-diethoxybenzoic acid] | 0.0001 to 1 |
| Cc1noc(C)c1-c1cnc2c(c1)c(-c1ccc(C(=O)O)cc1OC(F)(F)F)cn2CCN1CCOCC1 [P-0191, 4-(5-(3,5-dimethylisoxazol-4-yl)-1-(2-morpholinoethyl)-1H-pyrrolo[2,3-b]pyridin-3-yl)-3-(trifluoromethoxy)benzoic acid] | 0.0001 to 1 |
| CCOc1cc(C(=O)O)cc(OCC)c1-n1cc(-c2ccc(C3CC3)nc2)c2ncc(-c3c(C)noc3C)cc21 [P-0192, 4-(3-(6-cyclopropylpyridin-3-yl)-6-(3,5-dimethylisoxazol-4-yl)-1H-pyrrolo[3,2-b]pyridin-1-yl)-3,5-diethoxybenzoic acid] | 0.0001 to 1 |
